Among the test systems are OVCAR-5 ovarian; MDA-MB-435; TK-10 renal; HS 578T breast; OVCAR-3 ovarian; CAKI-1 renal; IGROV1 ovarian; NCI-H460 lung; LOX IMVI melanoma; EKVX NSCLC.
Holding throughout (assay): inhibition of tumour cell growth, NCI panel, 48 h

SMILES strings stand for the structures.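 Test compounds were applied to cells in 96-well plates for 48 hours at 5 doses. At the GI50, growth is halved. TGI is the concentration that stops growth completely.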

Consider `FC(F)(F)c1ccc(-c2cnc(-c3ncon3)nc2NC2CCCCCC2)cc1`, for which the GI50 is more than 100 µM with OVCAR-5 ovarian; 71.3 µM in the test with MDA-MB-435; more than 100 µM with TK-10 renal; 32.1 µM in the test on HS 578T breast; 36.8 µM in the test on OVCAR-3 ovarian; 67.9 µM with CAKI-1 renal. Also, the GI50 in the test on IGROV1 ovarian is 52.5 µM; in the test with NCI-H460 lung, 37.2 µM. The TGI in the test on OVCAR-5 ovarian, in the test on MDA-MB-435, in the test with TK-10 renal, in the test on HS 578T breast, in the test with OVCAR-3 ovarian and in the test on CAKI-1 renal was more than 100 µM throughout. In addition, the TGI in the test with IGROV1 ovarian and in the test on NCI-H460 lung was more than 100 µM each time.

As for `COc1cc2c3c(n(C)c(=O)c2cc1OC)-c1cc2c(cc1/C3=C\CCCCN1C(=O)c3ccccc3C1=O)OCO2`, the GI50 in the test on OVCAR-5 ovarian was 74 µM; in the test with MDA-MB-435, more than 100 µM; in the test on TK-10 renal, 1.11 µM; in the test on HS 578T breast it was 26.5 µM; in the test with OVCAR-3 ovarian, 38.1 µM; in the test with CAKI-1 renal, 0.686 µM. The GI50 was 10.7 µM in the test on LOX IMVI melanoma and 3.52 µM in the test with NCI-H460 lung. The TGI with OVCAR-5 ovarian is more than 100 µM; in the test with MDA-MB-435 it was more than 100 µM; in the test with TK-10 renal, 29.1 µM; with HS 578T breast it was more than 100 µM; in the test on OVCAR-3 ovarian, more than 100 µM; in the test with CAKI-1 renal, 35.4 µM. The TGI worked out at 22.5 µM with LOX IMVI melanoma and 43.7 µM in the test with NCI-H460 lung.

Turning to `CO[C@H]1CC(O[C@@H]2/C(C)=C/C[C@@H]3C[C@@H](C[C@]4(C=C[C@H](C)[C@@H](C5CCCCC5)O4)O3)OC(=O)[C@@H]3C=C(C)[C@@H](O)[C@H]4OC/C(=C\C=C\[C@@H]2C)[C@]43O)O[C@@H](C)C1O[C@H]1C[C@H](OC)[C@@H](O)[C@H](C)O1` (stereo partly drawn), the GI50 is 1.57 µM with MDA-MB-435; 1.84 µM in the test with TK-10 renal; 2.45 µM with HS 578T breast; 1.66 µM in the test with OVCAR-3 ovarian; 1.22 µM in the test with CAKI-1 renal. For the same compound, the TGI was 3.13 µM in the test on MDA-MB-435; 3.51 µM with TK-10 renal; more than 100 µM in the test on HS 578T breast; 3.12 µM in the test on OVCAR-3 ovarian; 2.73 µM in the test on CAKI-1 renal.

Consider `COc1ccc(-c2nc(Nc3cc(C)[nH]n3)c3ccccc3n2)cc1`, for which the GI50 in the test with OVCAR-5 ovarian is 2.25 µM; in the test with MDA-MB-435, 1.3 µM; in the test on TK-10 renal, 0.865 µM; in the test on HS 578T breast, 0.678 µM; in the test on OVCAR-3 ovarian, 3.72 µM; in the test on CAKI-1 renal it was 0.52 µM. Further, the values for the GI50 in the test with IGROV1 ovarian and in the test on NCI-H460 lung were 0.686 µM and 3.1 µM, respectively. Further, the TGI is more than 88 µM in the test with OVCAR-5 ovarian; more than 100 µM in the test with MDA-MB-435; 8.11 µM in the test on TK-10 renal; 4.6 µM in the test on HS 578T breast; 38.8 µM in the test with OVCAR-3 ovarian; more than 64.1 µM with CAKI-1 renal. Also, the TGI with IGROV1 ovarian is 7.12 µM; with NCI-H460 lung, more than 100 µM.

For the compound `CN=c1ccc2nc3ccc(N)cc3sc-2c1`, the GI50 is 9.54 µM in the test on OVCAR-5 ovarian; 1.42 µM with MDA-MB-435; 6.96 µM with TK-10 renal; 17 µM with HS 578T breast; 1.02 µM with OVCAR-3 ovarian; 2.36 µM with CAKI-1 renal. The GI50 in the test with LOX IMVI melanoma is 1.87 µM; with IGROV1 ovarian, 2.54 µM; with NCI-H460 lung, 3.86 µM. For the same compound, the TGI is 23.7 µM in the test on OVCAR-5 ovarian; 3.24 µM with MDA-MB-435; 32.6 µM in the test on TK-10 renal; 59.6 µM with HS 578T breast; 13.8 µM with OVCAR-3 ovarian; 12.4 µM in the test with CAKI-1 renal. The TGI was 9.58 µM in the test with LOX IMVI melanoma, 6.24 µM in the test with IGROV1 ovarian and more than 100 µM in the test with NCI-H460 lung.

Regarding `O=C(/C=C/c1cc2ccccc2[nH]c1=O)/C=C/c1cc2ccccc2[nH]c1=O`, the GI50 was 22.5 µM in the test on EKVX NSCLC; more than 49 µM with OVCAR-5 ovarian; 11.6 µM in the test on TK-10 renal; more than 39.9 µM in the test with HS 578T breast; 12.1 µM in the test with OVCAR-3 ovarian; 15.2 µM with CAKI-1 renal. Besides, the GI50 with IGROV1 ovarian was more than 19.7 µM; in the test on NCI-H460 lung, 32.3 µM. The TGI in the test with EKVX NSCLC is more than 100 µM; in the test on OVCAR-5 ovarian it was more than 100 µM; with MDA-MB-435, more than 20 µM; in the test with TK-10 renal, more than 60.7 µM; with HS 578T breast it was more than 100 µM; in the test on OVCAR-3 ovarian it was more than 63.5 µM. In addition, the TGI in the test with CAKI-1 renal is more than 100 µM; in the test on IGROV1 ovarian, more than 49.3 µM; in the test with NCI-H460 lung, more than 100 µM.

For `CNCCCNCCCCNCCCN1C(=O)c2ccc3c4c(ccc(c24)C1=O)C(=O)N(CCCNCc1ccccc1OC)C3=O`, the GI50 in the test with OVCAR-5 ovarian is 5.35 µM; in the test with MDA-MB-435, 0.795 µM; in the test with TK-10 renal it was 4.08 µM; in the test on HS 578T breast it was 2.9 µM; in the test with OVCAR-3 ovarian, 2.93 µM; with CAKI-1 renal, 2.25 µM. Besides, the values for the GI50 in the test on LOX IMVI melanoma, with IGROV1 ovarian and in the test with NCI-H460 lung were 3.03 µM, 3.02 µM and 2.53 µM, respectively. Also, the TGI stood at 26.9 µM in the test with OVCAR-5 ovarian; 6.21 µM in the test on MDA-MB-435; 43.5 µM in the test on TK-10 renal; 22 µM in the test with HS 578T breast; 11.3 µM with OVCAR-3 ovarian; 24.4 µM in the test with CAKI-1 renal. Moreover, the values for the TGI with LOX IMVI melanoma, with IGROV1 ovarian and in the test on NCI-H460 lung were 14 µM, 19 µM and 12.1 µM, respectively.

Regarding `C1CCC([PH+](C2CCCCC2)C2CCCCC2[PH+](C2CCCCC2)C2CCCCC2)CC1.[Au].[CH-]1CCCCC1CC1CCCC[N-]1` (stereo not drawn), the GI50 was 0.302 µM in the test on EKVX NSCLC; 0.452 µM with OVCAR-5 ovarian; 0.286 µM in the test with MDA-MB-435; 0.516 µM in the test with TK-10 renal; 0.276 µM with HS 578T breast; 0.318 µM in the test with OVCAR-3 ovarian. Moreover, the GI50 is 0.791 µM in the test with CAKI-1 renal and 0.303 µM with NCI-H460 lung. Also, the TGI in the test on EKVX NSCLC worked out at 1.97 µM; in the test on OVCAR-5 ovarian, 2.01 µM; with MDA-MB-435, 1.01 µM; in the test on TK-10 renal, 2.05 µM; in the test on HS 578T breast, 1.69 µM; in the test with OVCAR-3 ovarian, 1.2 µM. The TGI in the test on CAKI-1 renal is 2.29 µM; in the test on NCI-H460 lung it was 1.09 µM.

For `C/C(=C\c1ccc2ccccc2c1)[N+](=O)[O-]`, the GI50 in the test with OVCAR-5 ovarian is 1.87 µM; with MDA-MB-435, 1.81 µM; with HS 578T breast, 2.54 µM; in the test with OVCAR-3 ovarian, 1.91 µM; in the test on CAKI-1 renal, 1.92 µM; in the test with LOX IMVI melanoma, 1.19 µM. Moreover, the GI50 in the test on NCI-H460 lung was 1.88 µM. Moreover, the TGI in the test on OVCAR-5 ovarian is 3.63 µM; in the test on MDA-MB-435 it was 3.6 µM; with HS 578T breast, 9.26 µM; with OVCAR-3 ovarian, 3.37 µM; in the test with CAKI-1 renal, 4.05 µM; in the test with LOX IMVI melanoma it was 2.8 µM. In the test on NCI-H460 lung, this compound displayed a TGI of 3.83 µM.

Regarding `COc1cc2c(cc1C1COc3cc4occc4cc3C1=O)OCO2` (stereo not drawn), the TGI is more than 100 µM in the test on EKVX NSCLC; more than 100 µM with OVCAR-5 ovarian; more than 100 µM in the test with MDA-MB-435; more than 100 µM in the test on TK-10 renal; 89.8 µM in the test on HS 578T breast; more than 100 µM in the test on OVCAR-3 ovarian. Also, the TGI with CAKI-1 renal, with LOX IMVI melanoma and in the test with IGROV1 ovarian was more than 100 µM in each case.

Consider `O=c1[nH]c(=O)n(C2CC(O)C(COP(=O)(OCc3ccc([N+](=O)[O-])o3)N(CCCCCl)CC(O)CO)O2)cc1F` (stereo not drawn), for which the GI50 in the test with EKVX NSCLC was more than 28.2 µM; in the test on OVCAR-5 ovarian, more than 100 µM; with MDA-MB-435 it was 1.26 µM; with TK-10 renal, 0.326 µM; in the test with HS 578T breast, 0.824 µM; in the test with OVCAR-3 ovarian, 0.39 µM. In addition, the figures for the GI50 in the test on CAKI-1 renal, with LOX IMVI melanoma and in the test with NCI-H460 lung were 0.191 µM, less than 0.0226 µM and less than 0.0474 µM, respectively. Besides, the TGI was more than 100 µM in the test on EKVX NSCLC; more than 100 µM in the test with OVCAR-5 ovarian; more than 100 µM in the test with MDA-MB-435; more than 87.7 µM in the test on TK-10 renal; more than 100 µM in the test with HS 578T breast; 0.589 µM with CAKI-1 renal. Further, the TGI with LOX IMVI melanoma and in the test on NCI-H460 lung was more than 100 µM throughout.

As for `OCc1ccc(N2CCCC2c2ccccc2)cc1Cl` (stereo not drawn), the GI50 was 0.351 µM with OVCAR-5 ovarian; 1.74 µM in the test with MDA-MB-435; 0.195 µM in the test with TK-10 renal; 7.4 µM in the test on HS 578T breast; 2.3 µM in the test with OVCAR-3 ovarian; 2.83 µM in the test on CAKI-1 renal. Moreover, the figures for the GI50 with LOX IMVI melanoma, with IGROV1 ovarian and in the test on NCI-H460 lung were 9.67 µM, 0.187 µM and 0.833 µM, respectively. Further, the TGI in the test with OVCAR-5 ovarian amounted to 1.52 µM; in the test with MDA-MB-435, 4.18 µM; with TK-10 renal, 1.27 µM; in the test with HS 578T breast, 30.8 µM; with OVCAR-3 ovarian, 10.1 µM; in the test on CAKI-1 renal, 17.4 µM. Further, the TGI in the test with LOX IMVI melanoma came to 22.5 µM; in the test with IGROV1 ovarian it was 0.813 µM; in the test with NCI-H460 lung it was 7.22 µM.

Turning to `O=C1/C(=C/c2ccccc2[N+](=O)[O-])Cc2ccccc21`, the GI50 in the test on OVCAR-5 ovarian is 2.19 µM; with MDA-MB-435, 3.06 µM; in the test with TK-10 renal, 3.14 µM; in the test on HS 578T breast, 3.7 µM; in the test on OVCAR-3 ovarian, 1.72 µM; in the test on CAKI-1 renal it was 3.13 µM. The GI50 is 1.88 µM in the test on LOX IMVI melanoma, 1.25 µM in the test with IGROV1 ovarian and 1.15 µM with NCI-H460 lung. The TGI in the test with OVCAR-5 ovarian was 5.36 µM; with MDA-MB-435, 11.8 µM; with TK-10 renal it was 7.1 µM; with HS 578T breast, more than 100 µM; in the test with OVCAR-3 ovarian, 3.2 µM; in the test on CAKI-1 renal it was more than 100 µM. In addition, the values for the TGI with LOX IMVI melanoma, in the test on IGROV1 ovarian and in the test on NCI-H460 lung were 4.39 µM, 8.59 µM and 13.1 µM, respectively.
